Assay results: patent publication US9144613B2, “Halogenated phenols for diagnostics, antioxidant protection and drug delivery” (priority 2012, dated 2015)
One block for each compound: values may come before it.

Columns and labels:
spontaneous tumors = conditions: 10 mg by gavage; X-ray imaging about two hours after; mice showing spontaneous tumors; control images of same mice prior to treatment did not show foci
Excerpt: As described above, oxidative foci or tumors may be identified by X-ray radiographic imaging of animals following administration of an indigogenic compound of the present invention. The radio-opaque indigo-like product formed and deposited with residence time in FROS-containing tumor tissues may then be detected.
In this example, female C3H/HeN mice were obtained as multiparous retired breeders (i.e., after 3 to 4 litters) that were positive for a mammary tumor virus. See, e.g., Sellitti, D. F., Tseng, Y-C., and Latham, K. R., “Effect of 3,5,3′-Triiodo-L-thyronine on the Incidence and Growth Kinetics of Spontaneous Mammary Tumors in C3H/HeN Mice,” Cancer Research, 41: 5015-19 (1981), the entire contents and disclosure of which are incorporated herein by reference. Mice showing spontaneous tumors were given 10 mg of 5-Iodo-Indoxyl-3′,5′-Diiodo-4′-hydroxy ether substrate (product of Example 4) by gavage. These mice were then subjected to X-ray imaging of the tumors about two hours after being fed the iodo-indigogenic compound. […] When developed, the X-ray film appears dark in areas where more transmission occurs and light in areas where less transmission occurs.

[1] = tested on: sites of the wound or injury; conditions: mice with small injuries or wounds (cuts, scratches); data not shown
[2] = Cleavage of the C—C bond during the oxidative dehalogenation reaction; format: physicochemical
Excerpt: It has also been discovered that other types of bonds or linkages may also be cleaved by oxidative or free radical-mediated dehalogenation of the phenol ring. For example, as described herein, it has now been observed that a carbonyl linkage, a nitrogen linkage, a sulfinyl linkage and possibly a C—C bond on the phenol ring may also be cleaved by the oxidative dehalogenation reaction. These bonds are also considered stable, and their cleavage in connection with the dehalogenation reaction is surprising as well. One caveat with the C—C bond or linkage is that depending on the particular starting compound structure and the substituents or groups attached to the halogenated phenol ring via the C—C bond, the C—C bond or linkage may or may not be generally cleaved during or following the dehalogenation reaction (see below). […] However, other compounds do become cleaved. It is important to note that whether a C—C bond of a particular starting compound is “cleavable,” or becomes cleaved, may not be all-or-nothing (i.e., the C—C bond may be considered non-cleavable even though a small or minute amount of cleavage may occur, and vice versa). Thus, the amount or percentage of cleavage may be partial with the alternatively cleaved or non-cleaved product being possibly undetected or minute. […]

[3] = Spontaneous dehalogenation and ether cleavage in buffered aqueous solution exposed to sunlight; format: physicochemical; conditions: about 1 mM in carbonate buffer (pH 8.0), exposed to sunlight for about one hour; clear yellow/orange solution formed
Excerpt: In contrast to reductive deiodination, spontaneous dehalogenation (e.g., deiodination) of a halogentated phenol ring in the presence of an oxidizing agent(s) and/or free radical(s) with cleavage of a chemical linkage, such as an ether linkage, etc., between the phenol ring and a conjugated compound has not been described. According to the present invention, cleavage of the ether linkage between the aromatic rings of thyroid hormone may form visibly colored quinone and iodine-containing products in buffered aqueous solutions in vitro, and this ether cleavage reaction may be accelerated under basic pH conditions and with exposure to ionizing radiation or light. These conditions favor the increased formation of oxidizing agents and/or free radicals, which are believed to promote the reaction. […] A quinone and an iodotyrosine product are also formed by cleavage of the ether linkage during the reaction. According to embodiments of the present invention, a spontaneous reaction of dehalogenation and cleavage of a chemical bond is proposed for the targeted delivery and release of a drug compound at or to sites of inflammation or disease. This spontaneous reaction is further proposed as a basis for scavenging free radicals and/or oxidative agents (FROS) as well as for the creation of a detectable compound(s) that may be used for diagnostic purposes.

SMILES: Oc1c(I)cc(Oc2c[nH]c3ccc(I)cc23)cc1I [Example 4, 5-Iodo-Indolyl-3′,5′-Diiodo-4′-hydroxyl-p-Phenol Ether]
radio-opaque tumor regions or foci by X-ray (formation and deposit of indigo-like product in oxidative tumor tissues) (spontaneous tumors): radio-opaque tumor regions or foci | X-ray detection at sites of wound or injury [1]: strong detection was observed

cleavage of C—C bond with the dehalogenation reaction [2]: generally not to be cleaved
SMILES: N[C@@H](Cc1ccc(O)c(I)c1)C(=O)O [MIT, 3-iodo-4-hydroxy-L-phenylalanine]

SMILES: N[C@@H](Cc1cc(I)c(Oc2cc(I)c(O)c(I)c2)c(I)c1)C(=O)O [thyroxine]
cleavage of ether linkage with release of iodide [3]: the ether linkage is broken spontaneously
